The text below walks through data of PubChem BioAssay (NCI).

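Briefly, cells in 96-well plates were exposed to five compound concentrations for 48 h, and endpoints were estimated by linear interpolation. At the TGI there is no net growth.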

Among the test systems are OVCAR-5 ovarian; K-562 leukemia; KM12 colon; HT29 colon; HOP-92 NSCLC; SK-OV-3 ovarian; HCT-116 colon; U251 CNS; CCRF-CEM leukemia; COLO 205 colon; OVCAR-3 ovarian; SK-MEL-5 melanoma; BT-549 breast.
Assay in all cases: NCI tumour cell line growth inhibition, 48 h

`COc1c2c(c3c(c1OC)c(=O)c1ccccc1n3C)OCO2`: the TGI in the experiment with OVCAR-5 ovarian, in the experiment with K-562 leukemia, in the experiment on KM12 colon, with HT29 colon, with HOP-92 NSCLC and in the experiment with SK-OV-3 ovarian was more than 100 µM each time. Besides, the TGI with HCT-116 colon, with U251 CNS, in the experiment on CCRF-CEM leukemia, in the experiment with COLO 205 colon, with OVCAR-3 ovarian and in the experiment with SK-MEL-5 melanoma was more than 100 µM throughout. This compound had a TGI in the experiment on BT-549 breast of more than 100 µM.

For `C[C@H](Nc1nc(N)c(N=O)c(=O)n1C)C(=O)O`, the TGI with OVCAR-5 ovarian, with K-562 leukemia, in the experiment on KM12 colon, in the experiment with HT29 colon, with HOP-92 NSCLC and in the experiment on SK-OV-3 ovarian was more than 10 µM each time. Moreover, the TGI in the experiment with HCT-116 colon, in the experiment with U251 CNS, in the experiment with CCRF-CEM leukemia, in the experiment with COLO 205 colon, with OVCAR-3 ovarian and in the experiment with SK-MEL-5 melanoma was more than 10 µM throughout. In the experiment with BT-549 breast, this compound came in with a TGI of more than 10 µM.

Regarding `COC(NC(=O)Nc1ccc(C)cc1)(C(F)(F)F)C(F)(F)F`, the TGI in the experiment with OVCAR-5 ovarian was more than 100 µM; with K-562 leukemia, more than 100 µM; with KM12 colon, more than 100 µM; in the experiment on HT29 colon it was more than 100 µM; in the experiment with HOP-92 NSCLC, 93.3 µM; in the experiment with SK-OV-3 ovarian it was 76.4 µM. In addition, the TGI was more than 100 µM with HCT-116 colon; 45 µM in the experiment on U251 CNS; more than 100 µM in the experiment with CCRF-CEM leukemia; 36.8 µM in the experiment on COLO 205 colon; more than 100 µM in the experiment on OVCAR-3 ovarian; 30.6 µM with SK-MEL-5 melanoma. For the same compound, the TGI with BT-549 breast was found to be 83.5 µM.

`C(=N\c1nc2cc3sc(/N=C/c4ccccc4)nc3cc2s1)/c1ccccc1`: the TGI in the experiment with OVCAR-5 ovarian, with K-562 leukemia, with KM12 colon, in the experiment on HT29 colon, in the experiment on HOP-92 NSCLC and in the experiment on SK-OV-3 ovarian was more than 100 µM in each case. Also, the TGI in the experiment with HCT-116 colon was more than 100 µM; in the experiment on U251 CNS, more than 100 µM; in the experiment with CCRF-CEM leukemia, 42 µM; in the experiment on COLO 205 colon, more than 100 µM; with OVCAR-3 ovarian it was more than 100 µM; in the experiment with SK-MEL-5 melanoma, more than 100 µM. This compound also showed a TGI in the experiment on BT-549 breast of more than 100 µM.

For the compound `Cc1nc(-c2ccccc2)cn2c1nc1ccccc12`, the TGI was more than 31.6 µM in the experiment on OVCAR-5 ovarian; more than 100 µM with K-562 leukemia; more than 70.3 µM in the experiment on KM12 colon; more than 56.4 µM with HT29 colon; 62.6 µM in the experiment on HOP-92 NSCLC; 26 µM in the experiment with SK-OV-3 ovarian. The TGI with HCT-116 colon is more than 70.9 µM; with U251 CNS, 36.3 µM; in the experiment with CCRF-CEM leukemia, more than 100 µM; in the experiment on COLO 205 colon, more than 100 µM; in the experiment with OVCAR-3 ovarian, 69.9 µM; in the experiment with SK-MEL-5 melanoma, 28.6 µM. The compound also returned a TGI in the experiment with BT-549 breast of 38.9 µM.

As for `Cc1ccc(S(=O)(=O)n2cc(C=O)c(-c3cn(S(=O)(=O)c4ccc(C)cc4)cc3-c3cn(S(=O)(=O)c4ccc(C)cc4)cc3C=O)c2)cc1`, the TGI in the experiment on OVCAR-5 ovarian, in the experiment on K-562 leukemia, with KM12 colon, in the experiment on HT29 colon, in the experiment with HOP-92 NSCLC and in the experiment with SK-OV-3 ovarian was more than 100 µM each time. Further, the TGI in the experiment on HCT-116 colon, with U251 CNS, with CCRF-CEM leukemia, in the experiment on COLO 205 colon, with OVCAR-3 ovarian and in the experiment with SK-MEL-5 melanoma was more than 100 µM in each case. Further, the TGI in the experiment on BT-549 breast is more than 100 µM.

With `NC1=Nc2ccccc2Sc2nncn21`, the TGI with OVCAR-5 ovarian, in the experiment with K-562 leukemia, in the experiment with KM12 colon, in the experiment on HT29 colon, in the experiment with HOP-92 NSCLC and in the experiment on SK-OV-3 ovarian was more than 100 µM in each case. The TGI in the experiment on HCT-116 colon, with U251 CNS, in the experiment on CCRF-CEM leukemia, in the experiment with COLO 205 colon, with OVCAR-3 ovarian and in the experiment with SK-MEL-5 melanoma was more than 100 µM in each case. In the experiment on BT-549 breast, this compound showed a TGI of more than 100 µM.

On to `O=S(=O)(O)c1ccc(N=Nc2ccccc2)cc1`, for which the TGI in the experiment on OVCAR-5 ovarian, in the experiment on K-562 leukemia, in the experiment on KM12 colon, with HT29 colon, in the experiment with HOP-92 NSCLC and with SK-OV-3 ovarian was more than 100 µM throughout. For the same compound, the TGI with HCT-116 colon, in the experiment on U251 CNS, in the experiment with CCRF-CEM leukemia, with COLO 205 colon, with OVCAR-3 ovarian and in the experiment with SK-MEL-5 melanoma was more than 100 µM in each case. In the experiment with BT-549 breast, this compound came in with a TGI of more than 100 µM.

Consider `CN(C)Cc1cc(Cl)c(O)c(CN(C)C)c1`, for which the TGI with OVCAR-5 ovarian, in the experiment on K-562 leukemia, with KM12 colon, in the experiment with HT29 colon, with HOP-92 NSCLC and in the experiment on SK-OV-3 ovarian was more than 100 µM in each case. Moreover, the TGI in the experiment on HCT-116 colon, in the experiment with U251 CNS, with CCRF-CEM leukemia, with COLO 205 colon, in the experiment on OVCAR-3 ovarian and with SK-MEL-5 melanoma was more than 100 µM throughout. This compound displayed a TGI with BT-549 breast of more than 100 µM.

Take `NS(=O)(=O)c1ccc(NC(=O)N/N=C/c2ccccc2[N+](=O)[O-])cc1`: the TGI with OVCAR-5 ovarian, in the experiment with K-562 leukemia, in the experiment on KM12 colon, in the experiment on HT29 colon, with HOP-92 NSCLC and in the experiment with SK-OV-3 ovarian was more than 100 µM each time. Further, the TGI in the experiment on HCT-116 colon, in the experiment with U251 CNS, in the experiment on CCRF-CEM leukemia, in the experiment with COLO 205 colon, in the experiment on OVCAR-3 ovarian and with SK-MEL-5 melanoma was more than 100 µM throughout. In addition, the TGI in the experiment with BT-549 breast is more than 100 µM.
